Laboratory results: patent US20260356846A1, “STATIN DERIVATIVES AND METHODS OF USING THE SAME” (The General Hospital Corporation, priority 2023, published 2026)
Read-outs that look alike come from different tables or passages of the source.

Experiments:
[1] = system: STMN2 (TDP-mut (N352S) STMN2-NLuc SH-SY5Y cells); assay: STMN2 nanoluciferase assay in TDP-43 mutant SH-SY5Y cells (Table A: mut TDP-43; Table B: mut HD Luciferase); type: cell-based, human; conditions: mutant TDP-43 cell line; for EC50: Homo sapiens, SH-SY5Y
Protocol: (§1) Neuroblastoma cells (ATCC) were cultured in DMEM/F12 (Gibco) supplemented with 10% fetal-bovine serum (Omega) and 1% penicillin-streptomycin (Gibco) at 37 °C with 5% CO2. For knockdown experiments, cells were transfected with SMARTpool ON-TARGETplus siRNA or control siRNA pool (D001810-10) (GE Dharmacon) at a final concentration of 50 nM, for 96 h in two doses (0, 24 h), after complexing with Lipofectamin RNAiMAX (Invitrogen) in Opti-MEM (Gibco) for 10 min.
(§2) WT and TDP-mut (N352S) SH-SY5Y cells were edited using CRISPR-Cas9 to express Nanoluciferase at the C-terminus of both endogenous STMN2 alleles. A single guided RNA targeting STMN2 C-terminus was designed (Benchling webtool) and cloned into pSpCas9-2A-green fluorescent protein (GFP) plasmid (px458-Addgene) using the BbsI restriction site. The sequence for guided RNA targeting STMN2 was: […]. For the repair template, overlapping fragments of 800 bp STMN2 homology arms flanking Nanoluciferase (NLuc, Promega) were generated and ligated into pUC57 backbone. A 42 bp GS-linker was also included 5′ to NLuc to prevent steric hindrance of the reporter to the final STMN2 exon. Fragments were ligated using Gibson Assembly and nucleofected simultaneously with pSpCas9-2A-GFP-gRNA plasmid using the Amaxa Nucleofector (assay A-023). Forty-eight hours following electroporation, cells were collected, and GFP-positive cells sorted and single-cell seeded into 96-well plates using the SH800S Sony cell sorter. Individual clones were expanded and DNA was extracted for PCR amplification of the STMN2 Ex5 genomic locus using primers within NLuc and outside the STMN2 5′ homology arm to confirm presence of the insert. The entire STMN2 coding region and all exon-intron junctions (>500-bp length of each intronic region) were then sequenced to verify the absence of any additional DNA alteration. qPCR analysis was performed with a wild-type isogenic SH-SY5Y cell line that had undergone the mutagenesis attempt but not acquired the insertion mutation during the original screening process.
(§3) TDP-mut STMN2-NLuc SH-SY5Y cells were used in small-molecule screening at ICCB-Longwood. 3000 cells/well were plated in white 384-well plates using a 50 ul sample volume. 24 hours after plating, compounds were added using 100 nl pin transfer. 24 hours later, 25 ul NLuc assay was added to each well according to manufacturer instructions (Promega, Cat #). Plates were shaken for 1 min prior to luminescence readings using EnVision2 machine. DMSO-only and WT STMN2-NLuc cells were included as negative and positive controls respectively on each plate, producing an average Z′score of ~0.7 across the screen. Each library plate was conducted in duplicate, and Z-scores calculated for each compound. For subsequent validation experiments, cell numbers in each well were quantified by hoescht staining at 1 μg/ml for 15 mins at 37C in black, clear bottom plates, prior to imaging at 4× using automated microscopy (ImageXpressMicro). Nuclei were then counted using a custom algorithm, and luciferase assay run as above. Luminescence results were then normalised against cell counts as RLU/cell.
(§4) Each compound was tested in triplicate in log doses ranging 0.01 μM−10 μM. The values are represented in luminescence normalized to the number of cells in the well, wherein darker grey correlates to higher RLU per cell and higher STMN2 protein expression.

[2] = system: STMN2 (WT STMN2-NLuc SH-SY5Y cells); assay: STMN2 nanoluciferase assay in WT SH-SY5Y cells (Table A: WT TDP-32; Table B: WT HD Luciferase); type: cell-based, human; conditions: Homo sapiens, SH-SY5Y, WT cell line; for maximal fold induction: Emax
Protocol: as §1, §2, §3, §4

[3] = Table A, read-out: EC50, mut TDP-43
[4] = Table B, read-out: EC50, mut HD Luciferase
[5] = Table A, read-out: EC50, WT TDP-32
[6] = Table B, read-out: EC50, WT HD Luciferase

EC50 [1, 3] [µM] | EC50 [1, 4] [µM] | EC50 [2, 5] [µM] | EC50 [2, 6] [µM] | Structure (SMILES) | HD Luciferase (mut, Emax) ([1]; Table B) | maximal fold induction ([2]; Table B)
0.1 to 0.5 | 0.01 to 0.05 | 0.1 to 0.5 | 0.01 to 0.05 | O=C(O)C[C@H](O)C[C@H](O)/C=C/c1c(-c2ccc(F)cc2Cl)cc(C2CC2)nc1C1CC1 [II-8, (3R,5S,E)-7-(4-(2-chloro-4-fluorophenyl)-2,6-dicyclopropylpyridin-3-yl)-3,5-dihydroxyhept-6-enoic acid] | – | –
– | 0.01 to 0.05 | – | 0.01 to 0.05 | COCc1c(C2CC2)nc(C2CC2)c(/C=C/[C@@H](O)C[C@@H](O)CC(=O)O)c1-c1ccccc1Cl [II-25, (3R,5S,E)-7-(4-(2-chlorophenyl)-2,6-dicyclopropyl-5-(methoxymethyl)pyridin-3-yl)-3,5-dihydroxyhept-6-enoic acid] | – | –
– | ≤ 0.01 | – | ≤ 0.01 | Cc1cc(F)ccc1-c1cc(C2CC2)nc(C2CC2)c1/C=C/[C@@H](O)C[C@@H](O)CC(=O)O [II-12, (3R,5S,E)-7-(2,6-dicyclopropyl-4-(4-fluoro-2-methylphenyl)pyridin-3-yl)-3,5-dihydroxyhept-6-enoic acid] | – | –
– | 0.1 to 0.5 | – | 0.05 to 0.1 | O=C(O)C[C@H](O)C[C@H](O)/C=C/c1c(-c2ccc(F)cc2)cc(C23CC(C2)C3)nc1C1CC1 [II-16, (3R,5S,E)-7-(6-(bicyclo[1.1.1]pentan-1-yl)-2-cyclopropyl-4-(4-fluorophenyl)pyridin-3-yl)-3,5-dihydroxyhept-6-enoic acid] | ** (means≥1.25 and <1.5) | –
0.5 to 1 | – | 0.5 to 1 | – | O=C(O)C[C@H](O)C[C@H](O)/C=C/c1c(C2CC2)nc2ccccc2c1-c1ccc(F)cc1 [Pitavastatin, pitavastatin, reference compound] | – | –
≤ 0.1 | ≤ 0.01 | ≤ 0.1 | 0.01 to 0.05 | Cc1csc2c(-c3ccc(F)cc3)c(/C=C/[C@@H](O)C[C@@H](O)CC(=O)O)c(C3CC3)nc12 [Example I-1, (3R,5S,E)-7-(5-cyclopropyl-7-(4-fluorophenyl)-3-methylthieno[3,2-b]pyridin-6-yl)-3,5-dihydroxyhept-6-enoic acid] | – | 1.5 to 1.75
– | 0.01 to 0.05 | – | 0.01 to 0.05 | Cc1csc2nc(C3CC3)c(/C=C/[C@@H](O)C[C@@H](O)CC(=O)O)c(-c3ccc(F)cc3)c12 [Example I-10, (3R,5S,E)-7-(6-cyclopropyl-4-(4-fluorophenyl)-3-methylthieno[2,3-b]pyridin-5-yl)-3,5-dihydroxyhept-6-enoic acid] | – | –
– | 0.01 to 0.05 | – | 0.01 to 0.05 | O=C(O)C[C@H](O)C[C@H](O)/C=C/c1c(C2CC2)cc2ncsc2c1-c1ccc(F)cc1 [Example I-11, (3R,5S,E)-7-(5-cyclopropyl-7-(4-fluorophenyl)benzo[d]thiazol-6-yl)-3,5-dihydroxyhept-6-enoic acid] | ** (means≥1.25 and <1.5) | –
– | 0.1 to 0.5 | – | 0.1 to 0.5 | Cc1cc(F)ccc1-c1cc(C23CC(C2)C3)nc(C2CC2)c1/C=C/[C@@H](O)C[C@@H](O)CC(=O)O [II-14, (3R,5S,E)-7-(6-(bicyclo[1.1.1]pentan-1-yl)-2-cyclopropyl-4-(4-fluoro-2-methylphenyl)pyridin-3-yl)-3,5-dihydroxyhept-6-enoic acid] | – | –
– | 0.05 to 0.1 | – | 0.1 to 0.5 | Cc1csc2nc(C3CC3)c(/C=C/[C@@H](O)C[C@@H](O)CC(=O)O)c(-c3ccc(Cl)cc3)c12 [Example I-34, (3R,5S,E)-7-(4-(4-chlorophenyl)-6-cyclopropyl-3-methylthieno[2,3-b]pyridin-5-yl)-3,5-dihydroxyhept-6-enoic acid] | – | 1.5 to 1.75
